Test results taken from patent publication US20110224221A1, “HEMATOPOIETIC PROTECTION AGAINST IONIZING RADIATION USING SELECTIVE CYCLIN-DEPENDENT KINASE 4/6 INHIBITORS” (priority 2008, published 2011).

Tests used:
[1] = tested on: KPTR1, KPTR4 and KPTR5 melanoma cell lines; assay: Cell cycle analysis (BrdU incorporation in vitro) in murine melanoma cell lines; type: cell-based; conditions: 24 hours treatment
Excerpt: FIG. 2C is a set of graphs showing the dose-response curves for cell cycle analysis in murine (KPTR1, KPTR4 and KPTR5 from TyrRAS+Ink4a/Arf−/−mice) melanoma cell lines. […] The percentage of cells in the G1 phase is indicated by the data shown in the closed squares. The percentage of cells in the S phase is shown by the data in the open triangles. The percentage of cells in the G2/M phase is indicated by the data in the open circles. The percentage of cells actively proliferating as marked by Ki67 positive staining is shown in closed diamonds. Error bars are +/− the standard error of the mean (SEM).
Cell Lines: KPTR1, KPTR4. and KPTR5 were derived from tumor-bearing TyrRAS+Ink4a/Arf−/− by standard procedures and cultured in RPMI+10% fetal bovine serum (FBS). Telomerized HDFs (tHDFs, also known as HS68) were cultured in DMEM+10% FBS with penicillin and streptomycin. […]
BrdU Incorporation in vitro: Cells were plated and allowed to adhere overnight or at least 6 hours prior to adding CDK4/6 inhibitor at the indicated concentrations. […] The cells were then washed, trypsinized, pelleted, fixed, permeabilized, stained, and measured on a flow cytometer as described in manufacturer directions for the BrdU Kit (BD Biosciences Pharmingen, San Diego, Calif., United States of America).

[2] = tested on: RB-null melanoma cell line A2058; assay: Clonogenic assay after IR, A2058; type: cell-based, human; conditions: 100 nM, IR 0-9 Gy
Procedure: Data plotted is the area/cell ratio of PD0332991 treated cells to dimethyl sulfoxide (DMSO) treated cells. Error bars show standard error of the mean.
Clonogenic Assay: The clonogenic assay was performed as previously described (see Franken et al., Nature protocols, 1, 2315-1319 (2006)) with cells plated in a six-well plate at least 6 hours prior to treatment with CDK inhibitor for 24 hours, […] Cells were grown for 16 days, washed, fixed, and stained with crystal violet. Plates were then imaged using an Odyssey infrared scanner (Li-Cor Biosciences, Lincoln, Nebr., United States of America) and quantified using the accompanying software.

[3] = tested on: peripheral blood lineages; parameters: species or system mice; conditions: mouse, in vivo
Excerpt: Data are shown as a moving average with each point representing the mean of three consecutive […]. Error bars are +/− of the standard error of the mean for all data points associated with the moving average. The solid black bar in the lower left of each graph indicates the duration of the PD0332991 treatment. Data from PD0332991 treated mice is shown by the unshaded squares. For comparison, data from mice that had not been treated with PD0332991 is shown in shaded circles.
For TBI experiments, mice were irradiated using a ^137Cs source (AECL Gammacell 40 Irradiator, Atomic Energy of Canada Ltd, Mississauga, Ontario, Canada). Delivered doses were at or near the empirically determined LD90 of 7.5 Gy, consistent with prior studies. See Na Nakorn et al., J. Clin. Invest., 109, 1579-1585 (2002); Herodin et al., Blood, 101, 2609-2616 (2003); Uckun et al., Blood, 75, 638-645 (1990); and Wang et al., Proc. Natl. Acad. Sci., USA, 94, 14590-14595 (1997). Peripheral blood was collected using a tail vein nick for complete blood cells (CBCs) and analyzed with a HemaTrue analyzer (Heska Co., Loveland, Colo., United States of America).
These observations are consistent with the kinetics and degree of myelosuppression seen when tumor bearing mice (see Ramsey et al., Cancer Res., 67, 4732-4741 (2007); and Fry et al., Mol. Cancer Ther., 3, 1427-1438 (2004)) and human patients with malignancies (see O'Dwyer et al., “A Phase I does escalation trial of a daily oral CDK4/6 Inhibitor PD 0332991” in American Society of Clinical Oncology (ASCO, Chicago, Ill., 2007)) are serially treated with PD0332991. The noted decreases might be expected to enhance the adverse effects of radiation therapy. However, unexpectedly as shown herein, hematopoietic cells are protected from adverse effects.

For `CC(=O)c1c(C)c2cnc(Nc3ccc(N4CCNCC4)cn3)nc2n(C2CCCC2)c1=O` [PD0332991, 6-acetyl-8-cyclopentyl-5-methyl-2-(5-piperazin-1-yl-pyridin-2-ylamino)-8H-pyrido-[2,3-d]-pyrimidin-7-one], the “sensitivity of derivative tumor cell lines in vitro” value [1] was “insensitive”, the “clonogenic cell survival after IR (area/cell ratio relative to DMSO)” value [2] was “not in CDK4/6-independent cells” and the “time to begin of improvement upon cessation” value [3] was at most 4 days. For the same molecule, the “treatment time after which decrease became apparent” value [3] was 8 days and the “erythroid, platelet and myeloid lineages” value ([3]; po, 150 mg/kg) was “modest decrease”.
